Assay results taken from US12310971B2, “Coffee bean compositions comprising paraxanthine and methods for their production” (RAREBIRD, INC., priority 2021, dated 2025).

Legend:
[1] = in humans; cited from earlier work
[2] = Solubility of paraxanthine in infusion solvents as a function of pH; format: physicochemical; conditions: dependence on pH
Excerpt: Thus, performing the infusing step at a pH of 7 or higher can be useful to increase the paraxanthine content of the finished paraxanthine coffee. In various embodiments, the pH of the infusion mixture is greater than pH 7. In some embodiments, the pH of the infusion mixture is greater than pH 8. In some embodiments, the pH of the infusion mixture is greater than 8.5. In some embodiments, the pH of the infusion mixture is greater than 9.0. In some embodiments, the pH of the infusion mixture is greater than 9.5.

[3] = Paraxanthine concentration in filtered aqueous stock infusion solution; format: physicochemical; conditions: 18 grams of paraxanthine mixed in 1 liter of water at 85° C., filtered to remove undissolved paraxanthine
Procedure: In the first, infusing, step, the three batches of green coffee beans were individually infused with paraxanthine dissolved in water, the infusion solvent, to produce green solvated paraxanthine coffee beans. A stock solution of infusion solvent comprising paraxanthine was generated by mixing 18 grams of paraxanthine in 1 liter of water at 85° C.; the solution was then filtered to remove any residual, undissolved paraxanthine. The paraxanthine concentration in the stock solution was approximately 74 mM. Infusions were performed in 250-mL glass jars using 60 grams of green coffee beans and 120 grams of the stock infusion solution. The mixtures were incubated at 85° C. for 1 hour with periodic mixing. Subsequently, the green solvated paraxanthine coffee beans were separated using a colander, rinsed, and residual solvent removed from the surface of the beans. The mass of the infused beans was measured and compared to the mass of the original green coffee beans to determine the infusion solvent content. The moisture contents for batches 1, 2, and 3 were 45.1%, 46.9%, and 44.8%, respectively.

Compound	half-life [1]	solubility of paraxanthine in the infusion solvents [2]	paraxanthine concentration in the stock solution [3]
Cn1c(=O)c2c(ncn2C)n(C)c1=O [caffeine]	4.1 ± 0.8 h		
Cn1c(=O)[nH]c2ncn(C)c2c1=O [paraxanthine]		increases with increasing pH	approximately 74 mM
